Active and inactive are the calls of the source.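 How the source made its calls: active means normalized viability below 40% relative to DMSO and staurosporine controls, called cytotoxic; inactive means the rest.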
The molecules below were run on L1210 murine leukemia viability, fluorescein diacetate flow cytometry, 48 h (assay: viability of murine L1210 leukemia line – cell-based, cytotoxicity control for T cell immune modulator project (AID 504874)). Settings: at 20 µM; stronger effect = lower value.
In the case of `Cc1ccc(OCCOC(=O)c2cc(S(=O)(=O)N3CCCCC3)ccc2N2CCOCC2)cc1`, the viability is reported as 92.3% (inactive). `O=C(c1ccc(N2C(=O)C3CC=C(Cl)CC3C2=O)cc1)N1CCCCC1` (stereo not drawn) was tested, and the viability was 107% (inactive). For `COc1ccc(/C=C2\SC(=S)N(CCC(=O)N3CCOCC3)C2=O)cc1`, the viability was 90.8% (inactive). With `Cc1cc(=O)oc2c3c(cc(OCC(=O)NCc4ccncc4)c12)OC(C)(C)CC3` the viability was 110% (inactive). With `CCOC(=O)c1ccc(S(=O)(=O)N2CCN(C3CCCC3)CC2)cc1` the viability was 102% (inactive). With `COc1ccc(CNC(=O)c2cccnc2SC)cc1OC` the viability was 101% (inactive). `Cc1ccc(C(=O)NCCCN2CCOCC2)c(C)c1` was tested, and the viability was 108% (inactive). In the case of `CCC(C(=O)Nc1ccccc1)c1ccccc1` (stereo not drawn), the viability is reported as 98.3% (inactive). In the case of `Cc1cc(Cl)c(OCCCSc2nc(C)cc(=O)[nH]2)c(Br)c1`, the viability is reported as 107% (inactive). In the case of `CCOCC(=O)Nc1ccc(S(=O)(=O)N2CCC(c3nc4ccccc4[nH]3)CC2)cc1`, the viability is reported as 106% (inactive). With `COCc1c(C(=O)Nc2cccc(S(=O)(=O)N3CCCCC3)c2)oc2ccccc12` the viability was 78.5% (inactive). `CN(CC(=O)Nc1cc(S(=O)(=O)N2CCCC2)ccc1Cl)Cc1ccc2c(c1)OCO2` was tested, and the viability was 92.1% (inactive). With `CC(C)(C)NC(=O)COc1ccc(CNCc2cccnc2)cc1` the viability was 108% (inactive). `Cc1sc2ncnc(NCC(C)(C)N3CCOCC3)c2c1C` showed a viability of -4.46%. With `Cc1ncc([N+](=O)[O-])n1Cc1cccc(F)c1` the viability was 104% (inactive). `CCCNC(=O)c1nc2ncc(Br)cn2n1` was tested, and the viability was 103% (inactive). With `Cc1ccccc1C(=O)NCC(=O)N1CCN(C/C=C/c2ccccc2)CC1` the viability was 83.1% (inactive). `O=C(COC(=O)C12CC3CC(CC(Br)(C3)C1)C2)Nc1cccc(S(=O)(=O)N2CCOCC2)c1` was tested, and the viability was 99.3% (inactive). `COc1ccc(NC(=O)CC2C(=O)N(Cc3ccccc3)C(=S)N2CCN2CCOCC2)cc1` (stereo not drawn) was tested, and the viability was 98.8% (inactive). In the case of `COc1ccc([N+](=O)[O-])cc1NC(=O)c1ccc(N(Cc2ccccc2C)S(C)(=O)=O)cc1`, the viability is reported as 111% (inactive). `CN1CCN(S(=O)(=O)c2ccc(C(=O)Nc3ccccc3)cc2)CC1` was tested, and the viability was 108% (inactive). In the case of `CCOC(=O)C1CCCN(S(=O)(=O)c2ccc(F)c(C(=O)Nc3ccc(F)c(F)c3)c2)C1` (stereo not drawn), the viability is reported as 91.6% (inactive). In the case of `COc1ccc(S(=O)(=O)N2CCCC2C(=O)Nc2ccc(C(C)=O)cc2)cc1` (stereo not drawn), the viability is reported as 112% (inactive). In the case of `CCOC(=O)c1c(N2C(=O)CC(Sc3ccccc3C(=O)O)C2=O)sc2c1CCCC2` (stereo not drawn), the viability is reported as 98% (inactive). `O=C(NCCC1=CCCCC1)C(=O)NCC(c1ccco1)N1CCN(c2ccccc2F)CC1` (stereo not drawn) was tested, and the viability was 109% (inactive). With `CCCCn1nc(C(=O)N2CCN(S(=O)(=O)c3ccccc3)CC2)c2ccccc2c1=O` the viability was 100% (inactive). `COC(=O)c1ccccc1NC(=O)C1CCN(C(=O)c2cc(OC)cc(OC)c2)CC1` was tested, and the viability was 108% (inactive). With `CCN(CC)S(=O)(=O)c1ccc(Cl)c(NC(=O)COC(=O)C2CCCCC2)c1` the viability was 102% (inactive). For `CN1CCN(S(=O)(=O)c2cccc(C(=O)Nc3cc(C(F)(F)F)ccc3N3CCCCC3)c2)CC1`, the viability was 102% (inactive). For `COc1cccc(NC(=O)Nc2ccc3nc(C)c(C)nc3c2)c1`, the viability was 82.2% (inactive). `CN(C)S(=O)(=O)c1cccc(-n2sc3ccccc3c2=O)c1` showed a viability of 35.5%. `O=C(CCC(=O)N1CCOCC1)NCc1cccc(C(F)(F)F)c1` was tested, and the viability was 110% (inactive). `COc1ccc(C2=Nc3cc(C)ccc3OC2)cc1` was tested, and the viability was 108% (inactive). `COc1ccc(N2CC(C(=O)NC(C)C(=O)NCc3ccccc3OC)CC2=O)cc1` (stereo not drawn) was tested, and the viability was 104% (inactive). For `O=C(CC1=NCCNC(c2ccccc2)C1)c1ccccc1O` (stereo not drawn), the viability was 115% (inactive). `CC1CCCCC1NC(=O)COC(=O)c1ccc2ncsc2c1` (stereo not drawn) was tested, and the viability was 92.6% (inactive). `CCOC(=O)c1c(C=O)c2ccccc2n1CC` was tested, and the viability was 104% (inactive). In the case of `NC(=O)C1CCN(c2nc(-c3cc4ccccc4o3)cs2)CC1`, the viability is reported as 109% (inactive). For `COc1ccc(NC(=O)CSCC(=O)Nc2cccc(S(=O)(=O)N3CCCCCC3)c2)cc1`, the viability was 68.7% (inactive). For `CCOC(=O)N1CCN(C(=O)c2ccc(CS(=O)Cc3ccc(C)cc3)o2)CC1` (stereo not drawn), the viability was 107% (inactive). In the case of `CC(=O)c1ccc(-c2csc(N3CCC(C(N)=O)CC3)n2)cc1`, the viability is reported as 70.7% (inactive). `CCOC(=O)c1ccc(NC(=O)CN2C(=O)NC3(CCCCCCC3)C2=O)cc1` was tested, and the viability was 98.6% (inactive). In the case of `Cc1ccc(Cn2c([N+](=O)[O-])cnc2C)cc1`, the viability is reported as 104% (inactive). `Cc1ccc(O)c(CCc2ccccc2)n1` was tested, and the viability was 116% (inactive). For `COc1ccc(S(=O)(=O)N2CCCCC2)cc1NC(=O)c1cnc(C)cn1`, the viability was 105% (inactive). In the case of `CN(C)S(=O)(=O)c1ccc(C(=O)NCCc2ccco2)cc1`, the viability is reported as 108% (inactive). In the case of `Cn1c(CNC(=O)CNC(=O)c2ccc(F)cc2)cc(=O)n(C)c1=O`, the viability is reported as 100% (inactive). In the case of `O=C(Cn1cc(C(F)(F)F)cc(Cl)c1=O)NCCc1ccc(Cl)cc1Cl`, the viability is reported as 103% (inactive). In the case of `Cc1ccc(N2CC(C(=O)NC3=NCCS3)CC2=O)cc1` (stereo not drawn), the viability is reported as 102% (inactive). `O=C1CC(c2nc3ccccc3[nH]2)CN1Cc1ccccc1` (stereo not drawn) was tested, and the viability was 103% (inactive). For `Cc1ccc(S(=O)(=O)N2CCN(C(=O)CNC(=O)c3ccc(Cl)cc3)CC2)cc1`, the viability was 96.1% (inactive). `O=C(NNS(=O)(=O)c1ccc2ccccc2c1)c1cccs1` was tested, and the viability was 110% (inactive). With `COc1ccccc1NS(=O)(=O)c1cc(NC(=O)CNC(=O)c2cc(C)cc(C)c2)ccc1C` the viability was 61.6% (inactive). With `CCOc1ccc(CCNC(=O)CCS(=O)(=O)c2ccc(C)cc2)cc1OCC` the viability was 90.1% (inactive). For `O=C(OCCOc1cccc(Cl)c1)c1ccc(F)c(S(=O)(=O)N2CCOCC2)c1`, the viability was 109% (inactive). With `O=C(NCC1CCCCC1)c1ccc(Cl)c(S(=O)(=O)N2CCOCC2)c1` the viability was 114% (inactive). In the case of `CCOc1ccc(-c2nc(N)ncc2-c2ccccc2)c(O)c1`, the viability is reported as 105% (inactive). With `O=C(NCc1cccnc1)C(=O)NCC(c1ccco1)N1CCN(c2ccccc2)CC1` (stereo not drawn) the viability was 106% (inactive). In the case of `O=C(O)C1CCC(Cn2c(SCc3cc(=O)n4cc(Cl)ccc4n3)nc3ccsc3c2=O)CC1` (stereo not drawn), the viability is reported as 111% (inactive). For `CC(=O)Nc1ccc(S(=O)(=O)NC2CCSc3ccccc32)cc1` (stereo not drawn), the viability was 110% (inactive). Molecule `Cc1ccccc1C(=O)N1CCC(C(=O)Nc2ccc(C)c(S(=O)(=O)N3CCCCC3)c2)CC1` has a viability of 15.6%. In the case of `COc1ccc(Nc2ccccc2N)cc1`, the viability is reported as 90.2% (inactive). For `CC(Sc1nc2ccccc2[nH]1)C(=O)NC1CCCCC1C` (stereo not drawn), the viability was 98.6% (inactive). In the case of `Cc1cccc(NC(=O)C2CCN(S(=O)(=O)c3c(C)[nH]c(=O)[nH]c3=O)CC2)c1`, the viability is reported as 110% (inactive). In the case of `O=C(CS(=O)(=O)Cc1ccccc1)N1CCc2ccccc21`, the viability is reported as 102% (inactive). With `COc1ccccc1CNC(=O)COc1ccc(C)cc1` the viability was 99.1% (inactive). With `CCCCOc1ccc(C(=O)NCC(=O)N2CCN(C(=O)c3ccco3)CC2)cc1` the viability was 107% (inactive). In the case of `COc1ccc(C(O)c2coc3ccc(O)c(CN(C)C)c23)cc1` (stereo not drawn), the viability is reported as 87.4% (inactive). In the case of `Cc1ccc(S(=O)(=O)N2CCN(S(=O)(=O)N(C)C)CC2)c(C)c1`, the viability is reported as 105% (inactive). `CCCc1nnc(NC(=O)c2ccc(S(=O)(=O)N(C)c3ccccc3OC)cc2)s1` was tested, and the viability was 59.6% (inactive). `CCN(CC)CCNC(=O)CCCNC(=O)Cn1cnc2sc(C)c(C)c2c1=O` was tested, and the viability was 104% (inactive). For `COCCCN1CCc2[nH]c(=S)[nH]c(=O)c2C1`, the viability was 102% (inactive). For `O=C(NCCN1CCN(c2ccccc2)CC1)c1cccc(Br)c1`, the viability was 96.4% (inactive). In the case of `CCC1(C)NC(=O)N(CC(=O)N2N=C(c3ccccc3)CC2c2ccc(OC)cc2)C1=O` (stereo not drawn), the viability is reported as 103% (inactive). `CCN(CC)C(=O)N1CCN(S(=O)(=O)c2ccc(C)cc2)CC1` was tested, and the viability was 96.8% (inactive). In the case of `c1ccc(COc2ccc(OCCN3CCCCC3)cc2)cc1`, the viability is reported as 57.1% (inactive). `Cc1cc(C)n(C(=O)c2sc3cc(F)ccc3c2Cl)n1` was tested, and the viability was 107% (inactive). In the case of `Cc1ccc(NC(=O)COC(=O)CCc2c[nH]c3ccccc23)c(C)c1`, the viability is reported as 122% (inactive).
